# Data: US7217734B2, “Substituted benzopyrans as selective estrogen receptor-beta agonists” (Eli Lilly and Company, priority 2001, dated 2007)
# Biological target: T1, ERbeta Receptor (Homo sapiens, UniProt Q92731)
# T1 construct: purchased Pan Vera
# Test: Competition ER binding assay (3H-Estradiol), ER beta
# Conditions: ratio of Ki ER alpha to Ki ER beta; Ki from IC50 by Cheng-Prusoff equation
# Method: The competition ER binding assay was run in a buffer containing 50 mM N-[2-hydroxyethyl]piperazine-N′-[2-ethanesulfonic acid (Hepes) pH 7.5, 1.5 mM EDTA, 150 mM NaCl, 10% glycerol, 1 mg/mL ovalbumin, 5 mM DTT, 0.025 μCi per well of ^3H-Estradiol (NEN #NET517 at 118 Ci/mmol, 1 mCi/mL), and 10 ng/well ERAlpha or ERbeta Receptor (Pan Vera). Competing compounds were added at 10 different concentrations. Non-specific binding was determined in the presence of 1 μM of E2 (17-β Estradiol, Sigma, St. Louis, Mo.). The binding reaction (140 μL) was incubated for 4 hours at room temperature, then 70 μL of cold dextran coated charcoal (DCC) buffer was added to each reaction (DCC buffer was prepared by adding 0.75 g of charcoal [Sigma] and 0.25 g of dextran [Pharmacia] per 50 mL of assay buffer). The incubation plates were mixed for 8 minutes on an orbital shaker at 4° C. and then centrifuged at 3,000 rpm for 10 minutes at 4° C. An aliquot of 120 μl of the mix was transferred to another 96-well, white flat bottom plate (Costar) and 175 μl of Wallac Optiphase Hisafe 3 scintillation fluid was added to each well. The plates were sealed and then shaken vigorously on an orbital shaker. After an incubation of 2.5 hrs, the radioactivity was counted in a Wallac Microbeta counter. […] The Kd for ^3H-Estradiol was determined by saturation binding to ERα and ERβ receptors. The IC50 values for compounds were converted to Ki values using the Cheng-Prusoff equation and the Kd values were determined by saturation binding assay.
# T1 sequence (Q92731 whole entry): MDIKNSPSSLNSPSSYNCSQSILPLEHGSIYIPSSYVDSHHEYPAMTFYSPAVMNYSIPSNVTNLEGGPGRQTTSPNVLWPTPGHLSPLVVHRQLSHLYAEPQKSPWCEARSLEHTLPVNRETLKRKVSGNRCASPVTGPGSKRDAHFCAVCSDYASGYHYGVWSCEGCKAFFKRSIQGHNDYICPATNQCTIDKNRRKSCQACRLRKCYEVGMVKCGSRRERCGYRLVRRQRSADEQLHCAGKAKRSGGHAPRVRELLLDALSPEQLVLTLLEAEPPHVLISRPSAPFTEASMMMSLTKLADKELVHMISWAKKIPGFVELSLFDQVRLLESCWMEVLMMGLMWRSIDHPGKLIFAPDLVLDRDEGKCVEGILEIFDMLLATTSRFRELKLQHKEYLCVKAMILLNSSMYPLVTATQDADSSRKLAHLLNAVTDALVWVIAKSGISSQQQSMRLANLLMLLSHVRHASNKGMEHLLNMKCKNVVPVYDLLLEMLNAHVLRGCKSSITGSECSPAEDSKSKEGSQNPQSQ
row,Ki (nM) ER alpha/Ki (nM) ER beta,SMILES
1,1.4,"Oc1ccc([C@H]2Oc3ccc(C(F)(F)F)cc3[C@H]3CCC[C@H]32)cc1 (racemic) [Example 2, (^+)-2-(4-hydroxyphenyl)-6-trifluoromethyl-cyclopentyl[c]3,4-dihydro-2H-1-benzopyran]"
2,1.2,"Cc1ccc2c(c1)[C@H]1CCC[C@H]1[C@@H](c1ccc(O)cc1)O2 (racemic) [Example 3, (^+)-2-(4-hydroxyphenyl)-6-methyl-cyclopentyl[c]3,4-dihydro-2H-1-benzopyran]"
3,4.7,"Oc1ccc([C@H]2Oc3ccc(F)cc3[C@H]3CCC[C@H]32)cc1 (racemic) [Example 4, (^+)-2-(4-hydroxyphenyl)-6-fluoro-cyclopentyl[c]3,4-dihydro-2H-1-benzopyran]"
4,5.1,"Cc1cc(O)cc2c1O[C@H](c1ccc(O)cc1)[C@@H]1CCC[C@H]21 (racemic) [Example 7, (^+)-2-(4-hydroxyphenyl)-6-hydroxy-8-meth 1-cyclopentyl[c]3,4-dihydro-2H-1-benzopyran]"
5,13,"COc1cc(O)cc2c1O[C@H](c1ccc(O)cc1)[C@@H]1CCC[C@H]21 (racemic) [Example 9, (^+)-2-(4-hydroxyphenyl)-6-hydroxy-8-methoxy-cyclopentyl[c]3,4-dihydro-2H-1-benzopyran]"
6,2.5,"CC1(C)CC[C@H]2[C@@H](c3ccc(O)cc3)Oc3ccc(O)cc3[C@H]21 (racemic) [Example 10, (^+)-2-(4-hydroxyphenyl)-6-hydroxy-11,11-dimethyl-cyclopentyl[c]3,4-dihydro-2H-1-benzopyran]"
7,1.6,"CCC1(CC)CC[C@H]2[C@@H](c3ccc(O)cc3)Oc3ccc(O)cc3[C@H]21 (racemic) [Example 11, (^+)-2-(4-hydroxyphenyl)-6-hydroxy-11,11-diethyl-cyclopentyl[c]3,4-dihydro-2H-1-benzopyran]"
8,2.3,"COc1ccc2c(c1)[C@H]1CCC[C@H]1[C@@H](c1ccc(O)cc1)O2 (racemic) [Example 12, (^+)-2-(4-hydroxyphenyl)-6-methoxy-cyclopentyl[c]3,4-dihydro-2H-1-benzopyran]"
9,4.4,"Cc1cc([C@H]2Oc3ccc(O)cc3[C@H]3CCC[C@H]32)ccc1O (racemic) [Example 13, (^+)-2-(4-hydroxy-3-methylphenyl)-6-hydroxy-cyclopentyl[c]3,4-dihydro-2H-1-benzopyran]"
10,2.6,"Cc1cc([C@@H]2Oc3ccc(O)cc3[C@H]3CCC[C@H]32)ccc1O (racemic) [Example 14, (^+)-2-(4-hydroxy-3-methylphenyl)-6-hydroxy-cyclopentyl[c]3,4-dihydro-2H-1-benzopyran]"
11,11,"Cc1cc(O)ccc1[C@H]1Oc2ccc(O)cc2[C@H]2CCC[C@H]21 (racemic) [Example 15, (^+)-2-(2-methyl-4-hydroxyphenyl)-6-hydroxy-cyclopentyl[c]3,4-dihydro-2H-1-benzopyran]"
12,2.0,"Cc1cc2c(cc1O)[C@H]1CCC[C@H]1[C@@H](c1ccc(O)cc1)O2 (racemic) [Example 19, (^+)-2-(4-hydroxyphenyl)-6-hydroxy-7-methyl-cyclopentyl[c]3,4-dihydro-2H-1-benzopyran]"
13,0.6,"Cc1cc2c(cc1O)[C@H]1CCC[C@H]1[C@H](c1ccc(O)cc1)O2 (racemic) [Example 20, (^+)-2-(4-hydroxyphenyl)-6-hydroxy-7-methyl-cyclopentyl[c]3,4-dihydro-2H-1-benzopyran]"
14,4.6,"C[C@]1(c2ccc(O)cc2)Oc2ccc(O)cc2[C@@H]2CCC[C@@H]21 [Example 28, (^+)-2-methyl-2-(4-hydroxyphenyl)-6-hydroxy-cyclopentyl[c]3,4-dihydro-2H-1-benzopyran]"
15,1.3,"CC[C@]1(c2ccc(O)cc2)Oc2ccc(O)cc2[C@@H]2CCC[C@@H]21 [Example 29, (^+)-2-ethyl-2-(4-hydroxyphenyl)-6-hydroxy-cyclopentyl[c]3,4-dihydro-2H-1-benzopyran]"
16,1.4,"CC(C)[C@]1(c2ccc(O)cc2)Oc2ccc(O)cc2[C@@H]2CCC[C@@H]21 [Example 30, (+)-2-(1-methylethyl)-2-(4-hydroxyphenyl)-6-hydroxy-cyclopentyl[c]3,4-dihydro-2H-1-benzopyran]"

row,SMILES,Ki (nM) ER alpha/Ki (nM) ER beta
1,"Oc1ccc([C@H]2Oc3ccc(O)cc3[C@H]3CCC[C@H]32)cc1 (racemic) [Example 1, (^+)-2-(4-hydroxyphenyl)-6-hydroxy-cyclopentyl[c]3,4-dihydro-2H-1-benzopyran]",8.0
2,"Oc1ccc([C@@H]2Oc3ccc(O)cc3[C@H]3CCC[C@H]32)cc1 (racemic) [Example 16, (^+)-2-(4-hydroxyphenyl)-6-hydroxy-cyclopentyl[c]3,4-dihydro-2H-1-benzopyran]",1.4
